Source: patent US8592449B1, “Radiolabelled phenylimidazole-based ligands” (H. Lundbeck A/S, priority 2010, dated 2013)

System: PDE10A
Conditions: monkey, PET
Method: The monkey is sedated with ketamin (approximately 10 mg/kg), weighed, and maintained on a constant infusion of ketamin 15 mg/kg/h during transport. During transport the monkey is monitored by pulse oximetry and supported by oxygen. One venous catheter is applied for tracer administration and one venous catheter for blood radioactivity and PK sampling. Propofol is administered until the animal is anesthetized enough to intubate. After intubation the animal is maintained on sevoflurane inhalation anesthesia and artificial ventilation.
Blood samples (0.2 mL for radioactivity determination are taken at 0.5, 1, 3, 5, 10, 15, 20, 30, 45, 60 and 90 minutes after injection. The samples are labeled with time, date, sampling time in relation to injection, and project number.
PET scanning and arterial blood sampling is commenced upon start of the administration of the radiolabelled compound.

Cc1ccc(C)n2nc(CCc3nc(-c4ccccc4)cn3[11CH3])nc12 [[11C]Lu AE92686, 5,8-dimethyl-2-[2-([^11C-1-methyl]-4-phenyl-1H-imidazol-2-yl)-ethyl]-[1,2,4]triazolo[1,5-a]pyridine]
concentration in cerebellum (cerebellum (very low level of PDE10A)): low | uptake and retention in striatum (striatum versus other brain regions): highest uptake and retention | brain entry (i.v. bolus): readily enters the brain | time of peak regional tissue concentrations in brain (i.v. bolus, post injection): 10 to 15 min
